Laboratory results reported in patent US9353067B2, “Heterocyclic compounds and uses thereof in the treatment of sexual disorders” (ATIR Holding S.A., priority 2011, dated 2016).
Several values for one entry are separate records, joined by “and”; a condition that tells them apart may be missing. Identical values can stand only once.

What was measured:
CRF1 receptor = CRF1 receptor (Homo sapiens (Human), UniProt P34998); experiment: Competitive binding, (Tyr0)-CRF radioligand
Description: R-55 (which comprises a 3-hydroxyphenyl moiety) and the structurally related compounds N-108 (2-{[4-(2-ethoxyphenyl)piperazin-1-yl]methyl}quinazolin-4(3H)-one) and B-39 (7-chloro-2-((5,6-dihydro-4-(2-methoxyphenyl)pyridin-1(2H)-yl)methyl)quinazolin-4(3H)-one) were assayed for competitive binding to a variety of receptors, including D4.4 type dopamine receptor, in order to assess their specificity for D4.4 dopamine receptors.
The receptors were expressed as human recombinant proteins in CHO cells, except for adrenergic α1 and α2 receptors which were expressed in Wistar rat brain and cerebral cortex cells, respectively, and melanocortin MC4 receptor which was expressed in human recombinant HEK-293 cells. Binding was determined using the following radioligands in the presence of various concentrations of the tested compound:
0.05 nM)(Tyr^0)-corticotropin releasing factor (CRF) for corticotropin releasing factor CRF1 receptor,
The binding assays were performed in accordance with procedures described in the literature (Greengrass & Bremner, 1979; Boyajian & Leslie, 1987; Broadhurst, 1988; Lewis, 2001; Sutton, 1995; Dearry, 1990; Zhou, 1990; Grandy, 1989; Hayes, 1992; Sokoloff, 1990; Van Tol, 1991; Van Tol 1992; Sunahara, 1991; Weinshank, 1991; Schioth, 1996; Schioth 1997; Martin & Humphrey, 1994; May, 2003; Wolf & Schutz, 1997).

D2 short receptor = D2 short receptor (Homo sapiens (Human), UniProt P14416); experiment: Competitive binding to D2 short receptor ([3H]-spiperone), D4/D2 selectivity; settings: ratio of concentrations required to inhibit 50% of radioligand binding for each receptor
Description: R-55 (which comprises a 3-hydroxyphenyl moiety) and its isomers L-221 (comprising a 4-hydroxyphenyl moiety) and L-238 (comprising a 2-hydroxyphenyl moiety) were assayed for competitive binding to D2 SHORT and D4.4 type dopamine receptors, in order to assess their efficacy for treating sexual disorders. Both receptor types are expressed as human recombinant proteins in CHO cells, as described, for example, in Jarvis et al. (1973); Van Tol et al. (1991) and Van Tol et al. (1992).
Determination of binding to D2 short receptor was performed using [^3H]-spiperone, a D2 receptor ligand (Gundlach et al., 1984), as a radioligand (20-60 Ci/mmol, 0.2 nM) in the presence of various concentrations of the tested compound. Reactions were carried out in 50 mM TRIS-HCl (pH 7.4) containing 120 mM NaCl, 5 mM KCl, 5 mM MgCl2 and 1 mM EDTA, for 60 minutes at 25° C. The reaction was terminated by rapid vacuum filtration onto glass fiber filters. Radioactivity trapped onto the filters was determined (counted) and compared to control values in order to accurately evaluate any interaction of the test compound(s) with the cloned dopamine D2 short binding site.
Selectivity of R-55 was calculated as the D4/D2 binding ratio, based on the ratio of the concentration required to inhibit 50% of the radioligand binding for each receptor.

[1] = Transdermal administration of R-55 formulation to pigs, plasma R-55; format: in vivo, White Landrace female pigs
Description: R-55 and related compounds were assayed in the plasma samples using a Waters (USA) Alliance high performance liquid chromatograph coupled with a Waters Micromass ZQ quadruple mass spectrometer (in ESI+ mode) as a detector with Waters Empower chromatographic and mass spectrometric software for chromatographic data acquisition, processing and instrument control.
The tested compound was extracted from plasma using dichloromethane, followed by concentration by evaporating the extract and dissolution in a low volume chromatographic mobile phase.
The instrument was calibrated using plasma spiked with various concentrations of the tested compound. Enrofloxacin (m/z=360.4) was used as an internal standard.
In order to investigate the feasibility of transdermal administration of R-55, the presence of R-55 in plasma was measured following administration to pigs of the exemplary transdermal formulation described in Example 5.
White Landrace female pigs were acclimatized for 5 days prior to application of the formulation. 50 ml of the formulation (containing 500 mg R-55) was applied over a 15×7 cm area of the skin of each pig, in a single dose. In order to facilitate constant transdermal administration for at least 6 hours, a suitable plastic shield, attached by adhesive plaster, was used to cover the whole treated dermal surface area for six hours.
Clinical observations were performed during the six hours following application.
Blood samples were withdrawn from each pig via a jugular vein catheter at the following time points: immediately prior to application (t=0) and 15 minutes, 30 minutes, 45 minutes, 60 minutes, 90 minutes, 2 hours, 4 hours, and 6 hours post-application. All samples were collected in commercially available, EDTA supplemented test-tubes. Blood samples were stored on crushed ice after collection. Plasma was separated by centrifugation (10 minutes at 3000 rotations per minute), within one hour post-sampling. Each plasma sample was divided into two aliquots before freezing. Plasma samples were then stored at −20° C. until being dispatched for LCMS analysis.

Sequence of D2 short receptor (P14416 other isoform, or with tags, fused parts or gaps): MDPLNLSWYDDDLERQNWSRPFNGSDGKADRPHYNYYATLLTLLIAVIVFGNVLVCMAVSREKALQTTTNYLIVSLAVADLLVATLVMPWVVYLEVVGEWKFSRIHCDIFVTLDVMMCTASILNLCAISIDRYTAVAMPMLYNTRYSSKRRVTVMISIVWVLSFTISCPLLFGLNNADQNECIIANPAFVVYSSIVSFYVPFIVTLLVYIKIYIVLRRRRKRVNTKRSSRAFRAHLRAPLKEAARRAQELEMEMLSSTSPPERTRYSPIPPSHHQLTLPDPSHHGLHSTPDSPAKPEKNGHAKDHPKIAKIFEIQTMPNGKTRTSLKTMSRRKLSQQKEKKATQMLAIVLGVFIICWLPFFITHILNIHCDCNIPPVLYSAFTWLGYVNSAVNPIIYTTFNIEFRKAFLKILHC
Sequence of CRF1 receptor (P34998 24-415): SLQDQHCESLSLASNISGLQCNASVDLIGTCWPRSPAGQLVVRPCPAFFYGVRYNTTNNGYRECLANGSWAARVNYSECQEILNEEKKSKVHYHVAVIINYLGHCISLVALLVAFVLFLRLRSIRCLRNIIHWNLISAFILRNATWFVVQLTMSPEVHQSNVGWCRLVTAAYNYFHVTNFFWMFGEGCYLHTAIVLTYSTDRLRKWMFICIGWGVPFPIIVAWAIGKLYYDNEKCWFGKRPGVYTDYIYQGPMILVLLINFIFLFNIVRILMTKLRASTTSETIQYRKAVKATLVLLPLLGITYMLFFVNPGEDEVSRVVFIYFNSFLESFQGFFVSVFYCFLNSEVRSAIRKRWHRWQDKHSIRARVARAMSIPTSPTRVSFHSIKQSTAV

Compound: O=c1[nH]c(CN2CCN(c3cccc(O)c3)CC2)nc2ccccc12 [Compound R-55, 2-((4-(3-hydroxyphenyl)piperazin-1-yl)methyl)quinazolin-4-one]
- Competitive binding (%) at 5 μM of tested compound (CRF1 receptor): 3%
- Selectivity D4/D2 (D2 short receptor): 160
- concentration at 0 min ([1]; female, White Landrace, pig, plasma, topical, 500 mg, transdermal 500 mg R-55 (50 ml formulation), 0 minutes (immediately prior to application), individual animals #1-#4): 0 ng/mL
- concentration at 30 min ([1]; female, White Landrace, pig, plasma, topical, 500 mg, transdermal 500 mg R-55, 30 minutes after application, individual animals #1-#4): 16.7 ng/mL
- concentration at 4 h ([1]; female, White Landrace, pig, plasma, topical, 500 mg, transdermal 500 mg R-55, 4 hours after application, individual animals #1-#4): 0 ng/mL
- concentration at 6 h ([1]; female, White Landrace, pig, plasma, topical, 500 mg, transdermal 500 mg R-55, 6 hours after application, individual animals #1-#4): 0 ng/mL
- R-55 concentration (plasma) ([1]; transdermal 500 mg R-55 (50 ml formulation), 0 minutes (immediately prior to application), individual animals #1-#4): 0 ng/mL
- R-55 concentration (plasma) ([1]; transdermal 500 mg R-55, 15 minutes after application, individual animals #1-#4): 0 ng/ml (3×) and 10.8 ng/ml
- R-55 concentration (plasma) ([1]; transdermal 500 mg R-55, 30 minutes after application, individual animals #1-#4): 19.9 ng/mL and 11.8 ng/mL and 15.2 ng/mL
- R-55 concentration (plasma) ([1]; transdermal 500 mg R-55, 45 minutes after application, individual animals #1-#4): 0 ng/ml (3×) and 10.5 ng/ml
- R-55 concentration (plasma) ([1]; transdermal 500 mg R-55, 60 minutes after application, individual animals #1-#4): 10.3 ng/ml and 0 ng/ml (2×) and 10.7 ng/ml
- R-55 concentration (plasma) ([1]; transdermal 500 mg R-55, 90 minutes after application, individual animals #1-#4): 16.8 ng/ml and 0 ng/ml (2×) and 10.1 ng/ml
- R-55 concentration (plasma) ([1]; transdermal 500 mg R-55, 2 hours after application, individual animals #1-#4): 14.8 ng/mL and 11.8 ng/mL and 0 ng/mL and 10.7 ng/mL
- R-55 concentration (plasma) ([1]; transdermal 500 mg R-55, 4 hours after application, individual animals #1-#4): 0 ng/mL
- R-55 concentration (plasma) ([1]; transdermal 500 mg R-55, 6 hours after application, individual animals #1-#4): 0 ng/mL
- Clinical observations ([1]; transdermal 500 mg R-55, six hours following application): No clinical abnormalities were observed
- duration of relatively stable concentration of R-55 in plasma after administration ([1]; transdermal administration): at least 2 hours
